According to US11980598B2, “N-(2-(substituted-naphth-1-yl)ethyl) substituted amide compound, preparation and uses thereof” (BEIJING GREATWAY PHARMACEUTICAL TECHNOLOGY CO., LTD., priority 2017, dated 2024):

Assays:
[1] = target: human MT1 receptor membrane protein (Homo sapiens (Human), UniProt P48039); assay: MT1 receptor binding test ([3H]-Melotonin competition); conditions: for MT1 binding ratio (I %): prescreening, 10^−5 M
Method: (§1) The receptors included a MT1/MT2 receptor and a 5-HT2C receptor. The test was divided into two parts: prescreening and rescreening. The results of prescreening were expressed as the percentage of binding, and the results of rescreening were expressed as the IC50 value (in M, i.e., mol/L).
(§2) (3) Tris-HCl buffer formulation: 50 mM Tris-HCl Buffer, 1 mM EDTA, 5 mM MgCl2, 0.1% NaN3, and then a certain proportion of PMSF was added to make pH 7.4.
(§3) (4) The example compound to be tested was dissolved in DMSO and formulated as a stock solution of 10^−2 M, and then diluted with distilled water to a concentration gradient of […]. The prescreening of the MT receptor binding test was performed at the concentration of 10^−5 M; the prescreening of the 5-HT2C receptor binding test was performed at the concentrations of 10^−5 and 10^−7 M.
(§4) The statistical analysis was performed using GraphPad Prism 5.0 software. The formula for receptor binding test was: inhibition (%)=[(total CPM of binding−CPM of tube with drug)/(total CPM of binding−non-specific CPM)]×100%, wherein CPM was count of a radioactive intensity.
(§5) 10 μL of receptor membrane protein MT1 or MT2 was added to all the tubes. In non-specific binding tubes, 50 μL of a corresponding unlabeled ligand Ago at a concentration of 10^4 M was added to a final concentration of 10 μM, and pre-reacted for 30 minutes. In test tubes, 30 μL of test drug (MT1: a concentration of 10^4-10^−10 M, MT2: a concentration of […]) was added, respectively; all tubes were added with 40 μL [^3H]-Melotonin, respectively. […] The filter paper was taken out and dried by baking, and then placed in a scintillation bottle. 1 mL of the scintillation liquid was added, and the radioactive intensity was measured by a liquid scintillation counter.

[2] = target: human MT2 receptor membrane protein (Homo sapiens (Human), UniProt P49286); assay: MT2 receptor binding test ([3H]-Melotonin competition); conditions: for MT2 binding ratio (I %): prescreening, 10^−5 M
Method: as §1, §2, §3, §4, §5

Kunming mice [3] = assay: Forced mouse swimming test; type: in vivo; conditions: 10 mg/kg intraperitoneal, 3 days, last 4 of 6 min
Method: (§6) Animals: Kunming mice, male, body weight 18-22 g, SPF grade; SD rats, male, body weight 150-180 g, SPF grade. The test was carried out after acclimatization, and the animal was fasted for 12 hours before the test.
(§7) All drugs for the test were suspended and dispersed in a 1% aqueous solution of hydroxypropyl methylcellulose (HPMC), and shaken well before use. […] The doses for administration were all 10 mg/kg. For the concentration and volume for administration, see J Psychiatry Neurosci 2004; 29(2):126-133. The mice were intraperitoneally administered in a volume of 0.5 mL/20 g; and the rats were administered by i.g. in a volume of 2 mL/100 g.
Animal grouping and administration method were the same as those in the tail suspension test in mice. The mice were placed in a round glass vessel with a height of 20 cm, an inner diameter of 12 cm, a water depth of 10 cm and a water temperature of 25° C.

Kunming mice [4] = assay: Tail suspension test (TST) in mice; type: in vivo, mouse; conditions: 10 mg/kg intraperitoneal, 3 days, last 4 of 6 min
Method: as §6, §7
Mice were randomly divided into groups according to weight balance. Intraperitoneal injection was administered for three consecutive days, once a day, and the tail suspension test were performed 30 minutes after the third day. The tail suspension box was 25×25×35 cm, and a small clip was connected with a rope at the center of the top plate. An adhesive tape was stuck to the tail of the mouse 2 cm away from the tail end, and the adhesive tape was clamped with the clip to make the mouse in an inverted position. The duration of immobility was recorded during the last 4 minutes of total 6 minutes observed.

[5] = In vitro metabolism study, human liver microsomal incubation system; type: in vitro ADME
Method: TSQ Quantum liquid chromatography-mass spectrometer (LC/MS/MS) from Finnigan Inc, USA, chromatography column: TSKgel Amide-80 column (2.0 mm I.D.×100 mm, 5 μm); mobile phase: acetonitrile-water-formic acid (50:50:0.1); flow rate: 0.2 mL/min; injection volume: 5 μL; column temperature: room temperature. Ionization source is electrospray ionization (ESI) with 4.8 KV of spray voltage; capillary temperature (TEM): 300° C.; sheath gas: N2, flow rate: 10 psi; auxiliary gas: N2, flow rate: 1 psi; collision gas (CID): Ar at a pressure of 1.5 mTorr. The mass spectrometry scanning method was selective reaction monitoring (SRM) and detected by positive ion method. The internal standard was a […] solution of aconitine in acetonitrile, the minimum limit of quantification was 5 ng/mL, and the correlation coefficient was >0.99.
Approximately 10 mg of each sample to be tested was accurately weighed, dissolved in 0.1 mL of DMSO, and serially diluted with purified water to a 10 μM, 1 μM standard stock solution. An ice bath was operated and the incubation system for detection was formulated according to Table 4. NADPH was added to the incubation system to start the reaction, and then 50 μL was immediately added to 150 μL acetonitrile as a zero-time sample and a 1 μM standard curve sample. Another 1 μM standard stock solution was added to the incubation system, and then 50 μL was immediately added to 150 μL acetonitrile as a 0.1 μM standard curve sample. […] Each sample was shaken, and centrifuged at 18000 g for 10 min. The supernatant was taken for LC/MS/MS injection and determination.

SD rats = assay: Forced rat swimming test; type: in vivo; conditions: 10 mg/kg i.g., 3 days, last 5 of 6 min
Method: as §6, §7
Rats were randomly divided into groups according to weight balance. Rats were administered by i.g. for three consecutive days, once a day. One hour after administration on the third day, the forced swimming test was performed. The rats were placed in a round glass jar with a height of 40 cm, an inner diameter of 18 cm, a water depth of 23 cm, and a water temperature of 25° C. The rats were allowed to swim for 6 minutes, and the accumulated immobility time in the last 5 minutes was recorded.

[6] = incubation time 0 min, 1 μM, 1 mg/mL microsome, 37° C.

Sequence of human MT1 receptor membrane protein (P48039 whole entry): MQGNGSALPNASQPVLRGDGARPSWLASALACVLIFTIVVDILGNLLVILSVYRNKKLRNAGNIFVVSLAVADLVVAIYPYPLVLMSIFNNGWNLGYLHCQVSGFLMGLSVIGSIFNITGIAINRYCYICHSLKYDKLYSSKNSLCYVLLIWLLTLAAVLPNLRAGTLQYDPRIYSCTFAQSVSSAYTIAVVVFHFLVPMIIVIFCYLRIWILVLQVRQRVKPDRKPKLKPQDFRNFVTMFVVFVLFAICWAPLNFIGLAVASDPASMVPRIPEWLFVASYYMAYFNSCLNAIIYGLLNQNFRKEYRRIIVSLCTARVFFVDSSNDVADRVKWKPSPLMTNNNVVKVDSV
Sequence of human MT2 receptor membrane protein (P49286 whole entry): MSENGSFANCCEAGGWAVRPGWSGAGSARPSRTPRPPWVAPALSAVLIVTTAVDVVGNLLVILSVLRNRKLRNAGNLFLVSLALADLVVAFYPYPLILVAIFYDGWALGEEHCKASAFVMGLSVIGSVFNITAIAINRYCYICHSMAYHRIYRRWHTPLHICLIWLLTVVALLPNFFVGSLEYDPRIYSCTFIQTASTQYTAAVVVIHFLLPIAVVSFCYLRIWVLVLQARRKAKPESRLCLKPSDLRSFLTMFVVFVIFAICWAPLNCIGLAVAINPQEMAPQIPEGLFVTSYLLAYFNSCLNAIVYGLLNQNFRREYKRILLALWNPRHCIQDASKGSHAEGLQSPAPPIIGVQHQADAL

Structure (SMILES) | MT1 binding ratio (I %) [1] [%] | MT2 binding ratio (I %) [2] [%] | Concentration measured at incubation time point [5, 6] [nM] | Concentration measured at incubation time point ([5]; incubation time 5 min) [nM] | Concentration measured at incubation time point ([5]; incubation time 15 min) [nM] | melting point [°C] | IC50 ([1]; rescreening) [nM] | IC50 ([2]; rescreening) [nM] | Concentration measured at incubation time point ([5]; incubation time 30 min) [nM] | Immobility time (Kunming mice [3]) [s] | Immobility time (Kunming mice [4]) [s] | Immobility time (SD rats) [s]
[2H]C([2H])([2H])Oc1cc2c(CCNC(=O)CC)cccc2cc1Cl [Example 5, N-(2-(6-chloro-7-deuteromethoxy-naphthalen-1-yl)ethyl)propanamide] | 81 | 44 | 1000 ± 32 | 675 ± 44 | 116 ± 10 | – | – | – | – | 96.4 ± 14.4 | 68.8 ± 17.3 | 66.2 ± 35.1
COc1cc2c(CCNC(C)=O)cccc2cc1Cl [Example 2, N-(2-(6-chloro-7-methoxy-naphthalen-1-yl)ethyl)acetamide] | 84 | 78 | 1000 ± 36 | 420 ± 79 | 39 ± 3 | – | – | – | – | 81.3 ± 20.3 | 69.4 ± 23.3 | 61.3 ± 29.8
[2H]C([2H])([2H])Oc1cc2c(CCNC(C)=O)cccc2cc1F [Example 3, N-(2-(6-fluoro-7-deuteromethoxy-naphthalen-1-yl)ethyl)acetamide] | 66 | 57 | 1000 ± 41 | 395 ± 47 | 29 ± 2 | 141 to 144 | – | – | – | 83.3 ± 30.7 | 77.7 ± 28.6 | 76.1 ± 30.2
[2H]C([2H])([2H])Oc1ccc2cccc(CCNC(C)=O)c2c1 [d3-Ago, d3-Agomelatine, reference compound] | – | – | 999 ± 103 | 235 ± 22 | 4 ± 3 | – | – | – | – | – | – | –

Now from value to molecule, other results behind:

MT1 binding ratio (I %) [1] [%] | MT2 binding ratio (I %) [2] [%] | Concentration measured at incubation time point [5, 6] [nM] | Concentration measured at incubation time point ([5]; incubation time 5 min) [nM] | Concentration measured at incubation time point ([5]; incubation time 15 min) [nM] | melting point [°C] | IC50 ([1]; rescreening) [nM] | IC50 ([2]; rescreening) [nM] | Concentration measured at incubation time point ([5]; incubation time 30 min) [nM] | Structure (SMILES) | Immobility time (Kunming mice [3]) [s] | Immobility time (Kunming mice [4]) [s] | Immobility time (SD rats) [s]
77 | 84 | 1001 ± 17 | 601 ± 9 | 48 ± 3 | 140 to 144 | 0.23 ± 0.24 | 0.67 ± 0.08 | 11 ± 2 | COc1cc2c(CCNC(C)=O)cccc2cc1F [Example 4, N-(2-(6-fluoro-7-methoxy-naphthalen-1-yl)ethyl)acetamide] | 75.6 ± 26.7 | 76.6 ± 18.4 | 71.4 ± 40.3
77 | 36 | 1000 ± 42 | 471 ± 51 | 56 ± 5 | – | – | – | – | CCC(=O)NCCc1cccc2cc(Cl)c(OC)cc12 [Example 6, N-(2-(6-chloro-7-methoxy-naphthalen-1-yl)ethyl)propanamide] | – | – | –
73 | 69 | 1000 ± 35 | 505 ± 33 | 65 ± 7 | – | – | – | – | CCC(=O)NCCc1cccc2cc(F)c(OC)cc12 [Example 7, N-(2-(6-fluoro-7-methoxy-naphthalen-1-yl)ethyl)propanamide] | – | – | –
